Assay results published in patent US6759546B1, “3,5-di-iso-propyl-heptatrienoic acid derivatives having serum glucose reducing activity” (Allergan, Inc., priority 2003, dated 2004).
Changes are numbered by the printed parent chain. Where two headings read alike, the source gives them in different places.

Experiments:
RXRα [1] = target: T1, RXRα (Homo sapiens, UniProt P19793); experiment: ligand binding assay; details: read-out: RXR Bind. Ki α
T1 construct: expressed in transfected cells
T1 sequence (P19793 1-462): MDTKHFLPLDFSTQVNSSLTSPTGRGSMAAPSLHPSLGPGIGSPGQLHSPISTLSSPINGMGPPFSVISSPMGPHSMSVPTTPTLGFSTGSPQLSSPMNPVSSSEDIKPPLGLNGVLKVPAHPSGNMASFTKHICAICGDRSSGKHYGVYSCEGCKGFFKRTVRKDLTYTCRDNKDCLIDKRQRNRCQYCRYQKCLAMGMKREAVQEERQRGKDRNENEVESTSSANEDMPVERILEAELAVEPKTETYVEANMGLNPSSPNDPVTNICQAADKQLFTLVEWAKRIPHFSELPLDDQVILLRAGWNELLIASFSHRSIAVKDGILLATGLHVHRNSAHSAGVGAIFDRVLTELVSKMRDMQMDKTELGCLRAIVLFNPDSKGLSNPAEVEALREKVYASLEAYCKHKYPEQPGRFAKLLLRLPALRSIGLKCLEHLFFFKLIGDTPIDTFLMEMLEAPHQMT
Description: (§1) The results of the ligand binding assay are expressed in Ki numbers.

RARβ = target: T2, RARβ (Homo sapiens, UniProt P10826); experiment: ligand binding assay; details: read-out: RAR Bind. Ki β
T2 sequence (P10826 1-455): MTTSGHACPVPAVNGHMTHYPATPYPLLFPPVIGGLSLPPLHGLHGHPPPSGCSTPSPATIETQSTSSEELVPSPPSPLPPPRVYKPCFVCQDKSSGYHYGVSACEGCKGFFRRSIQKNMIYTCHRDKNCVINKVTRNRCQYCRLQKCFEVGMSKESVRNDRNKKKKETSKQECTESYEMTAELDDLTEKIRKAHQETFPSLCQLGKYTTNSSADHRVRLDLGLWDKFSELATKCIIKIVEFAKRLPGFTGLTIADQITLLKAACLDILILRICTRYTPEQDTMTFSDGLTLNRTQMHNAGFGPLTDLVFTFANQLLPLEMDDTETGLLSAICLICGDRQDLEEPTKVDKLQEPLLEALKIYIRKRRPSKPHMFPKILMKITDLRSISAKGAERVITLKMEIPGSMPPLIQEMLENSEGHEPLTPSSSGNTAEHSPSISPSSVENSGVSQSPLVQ
Description: as §1

RXRβ [2] = target: T3, RXRβ (Homo sapiens, UniProt P28702); experiment: ligand binding assay; details: read-out: RXR Bind. Ki β
T3 sequence (P28702 1-533): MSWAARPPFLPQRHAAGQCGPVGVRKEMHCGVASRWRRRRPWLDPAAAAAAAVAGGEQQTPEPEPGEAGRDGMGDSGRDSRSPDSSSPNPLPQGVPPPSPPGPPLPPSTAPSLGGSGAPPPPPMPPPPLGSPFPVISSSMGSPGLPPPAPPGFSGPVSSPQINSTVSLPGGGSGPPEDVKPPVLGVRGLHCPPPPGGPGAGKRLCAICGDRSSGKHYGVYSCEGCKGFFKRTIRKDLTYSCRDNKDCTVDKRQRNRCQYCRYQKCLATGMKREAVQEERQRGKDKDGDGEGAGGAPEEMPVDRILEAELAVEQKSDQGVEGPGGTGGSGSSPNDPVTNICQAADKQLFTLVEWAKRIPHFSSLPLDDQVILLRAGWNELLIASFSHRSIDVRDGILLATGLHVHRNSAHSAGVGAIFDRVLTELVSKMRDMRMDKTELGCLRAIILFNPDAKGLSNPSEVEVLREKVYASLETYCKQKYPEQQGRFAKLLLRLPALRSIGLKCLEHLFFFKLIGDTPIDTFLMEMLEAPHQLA
Description: as §1

[3] = test system: female diabetic db/db mice; experiment: serum glucose, triglyceride and thyroxine levels in db/db mice; format: in vivo; details: for Glucose Day 0 / Triglycerides Day 0: day 0 (pre-treatment)
Experimental: An assay described below tests the effect of compounds of the invention on serum glucose, tryglyceride and thyroxine levels in female 9-10 weeks old db/db mice.
Blood samples (70 μl) were taken by orbital bleeding at 11:00 AM on day 0 (pre-treatment), day 3, and day 6. On day 7, a blood sample (700 μl) was taken at 11:00 AM and the animals were sacrificed. Glucose, triglyceride and thyroxine (T4) levels were determined on a Boehringer Manheim Hatachi Clinical Chemistry Analyzer using standard protocols provided by the manufacturer and reagents that were supplied in commercially available kits (glucose and T4: Boehringer Manheim; triglycerides: Roche Diagnostics). Seven animals were treated in each group.

RARα = target: T4, RARα (Homo sapiens, UniProt P10276); experiment: ligand binding assay; details: read-out: RAR Bind. Ki α
T4 sequence (P10276 1-462): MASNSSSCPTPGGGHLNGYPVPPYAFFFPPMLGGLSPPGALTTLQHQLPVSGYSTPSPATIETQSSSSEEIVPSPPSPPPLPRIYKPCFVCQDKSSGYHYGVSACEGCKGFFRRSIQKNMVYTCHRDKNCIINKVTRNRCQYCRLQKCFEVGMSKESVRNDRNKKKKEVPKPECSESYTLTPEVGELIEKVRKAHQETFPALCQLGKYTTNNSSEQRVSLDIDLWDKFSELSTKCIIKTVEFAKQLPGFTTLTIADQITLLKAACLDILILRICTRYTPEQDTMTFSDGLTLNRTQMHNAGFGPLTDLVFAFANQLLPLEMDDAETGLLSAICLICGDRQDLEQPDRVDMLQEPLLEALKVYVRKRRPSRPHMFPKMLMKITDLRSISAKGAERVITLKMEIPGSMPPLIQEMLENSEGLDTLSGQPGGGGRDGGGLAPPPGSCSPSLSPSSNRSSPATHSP
Description: as §1

RARγ = target: T5, RARγ (Homo sapiens, UniProt P13631); experiment: ligand binding assay; details: read-out: RAR Bind. Ki γ
T5 sequence (P13631 1-454): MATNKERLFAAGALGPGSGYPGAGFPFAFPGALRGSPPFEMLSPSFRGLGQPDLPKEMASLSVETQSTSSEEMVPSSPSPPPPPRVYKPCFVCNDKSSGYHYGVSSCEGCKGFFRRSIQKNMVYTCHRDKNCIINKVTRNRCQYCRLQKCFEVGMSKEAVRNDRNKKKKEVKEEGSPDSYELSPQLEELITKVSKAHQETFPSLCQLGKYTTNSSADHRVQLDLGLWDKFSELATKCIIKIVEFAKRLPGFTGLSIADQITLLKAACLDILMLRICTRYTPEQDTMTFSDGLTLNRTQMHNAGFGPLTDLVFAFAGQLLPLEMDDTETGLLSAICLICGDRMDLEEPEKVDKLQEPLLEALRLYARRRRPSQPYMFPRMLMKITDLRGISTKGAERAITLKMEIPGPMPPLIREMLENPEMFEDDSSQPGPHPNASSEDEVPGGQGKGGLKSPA
Description: as §1

RXRβ [4] = target: T6, RXRβ (UniProt P28704); experiment: holoreceptor transactivation assay
T6 sequence (P28704 1-520): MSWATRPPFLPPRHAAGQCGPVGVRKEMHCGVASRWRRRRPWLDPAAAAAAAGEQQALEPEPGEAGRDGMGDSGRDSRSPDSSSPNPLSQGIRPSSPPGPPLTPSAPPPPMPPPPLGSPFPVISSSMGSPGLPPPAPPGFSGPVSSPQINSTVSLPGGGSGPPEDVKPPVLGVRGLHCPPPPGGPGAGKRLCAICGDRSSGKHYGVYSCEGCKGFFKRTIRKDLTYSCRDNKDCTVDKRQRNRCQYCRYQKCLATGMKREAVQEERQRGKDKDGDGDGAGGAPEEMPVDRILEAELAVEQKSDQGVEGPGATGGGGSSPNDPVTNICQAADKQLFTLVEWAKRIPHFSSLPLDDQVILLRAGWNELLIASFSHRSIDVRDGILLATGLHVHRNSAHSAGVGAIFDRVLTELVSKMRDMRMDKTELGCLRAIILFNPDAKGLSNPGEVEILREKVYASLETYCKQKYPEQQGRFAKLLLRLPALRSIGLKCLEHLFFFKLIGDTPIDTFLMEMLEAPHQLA
Description: (§2) The results obtained in this assay are expressed in EC50 numbers, as they are also in the chimeric receptor transactivation assay.
(§3) Particularly, the transactivation data pertaining to activation of the RAR receptors were obtained in the chimeric assay, and the transactivation data pertaining to the activation of RXR receptors were obtained in the holoreceptor assay.

RXRα [5] = target: T1, RXRα; experiment: holoreceptor transactivation assay; format: cell-based; details: for EC50: holoreceptor assay, read-out: RXR Trans. EC50 α; for RXR Trans. efficacy α: percentage compared to the standard compound
Description: as §2, §3

RXRγ [6] = target: T7, RXRγ (Homo sapiens, UniProt P48443); experiment: ligand binding assay; details: read-out: RXR Bind. Ki γ
T7 sequence (P48443 1-463): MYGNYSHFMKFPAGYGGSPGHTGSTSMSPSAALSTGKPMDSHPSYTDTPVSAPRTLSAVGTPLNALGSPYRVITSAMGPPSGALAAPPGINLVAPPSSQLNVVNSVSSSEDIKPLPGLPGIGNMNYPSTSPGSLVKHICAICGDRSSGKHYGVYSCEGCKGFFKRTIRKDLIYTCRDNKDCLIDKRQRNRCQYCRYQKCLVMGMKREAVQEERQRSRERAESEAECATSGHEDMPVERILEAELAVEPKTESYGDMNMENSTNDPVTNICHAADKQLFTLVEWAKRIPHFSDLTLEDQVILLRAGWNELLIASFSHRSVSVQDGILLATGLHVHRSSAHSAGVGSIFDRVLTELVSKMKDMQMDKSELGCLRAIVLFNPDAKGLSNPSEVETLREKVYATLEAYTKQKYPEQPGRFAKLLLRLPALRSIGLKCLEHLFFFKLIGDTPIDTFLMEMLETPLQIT
Description: as §1

RXRγ [7] = target: T8, RXRγ (UniProt P28705); experiment: holoreceptor transactivation assay; details: percentage compared to the standard compound
T8 sequence (P28705 1-463): T7 sequence (P48443 1-463) with A13T, Y15F, A31V, S34P, T228S, G230S, M258V, T450S
Description: as §2, §3

[8] = Table 2, 50 mg/kg oral gavage daily
[9] = percentage compared to the standard compound
[10] = Table 2, 5 mg/kg oral gavage daily
[11] = Table 3, 5 mg/kg oral gavage daily
[12] = Table 3, 50 mg/kg oral gavage daily

CCCOc1c(\C(C)=C/C=C/C(C)=C/C(=O)O)cc(C(C)C)cc1C(C)C [Compound 16, 7-(3,5-Diisopropyl-2-propoxy-phenyl)-3-methyl-octa-2,4,6-trienoic acid]
Ki (RXRα [1]): 1 nM | Ki (RARβ): 200 nM | Ki (RXRβ [2]): 12 nM | Glucose Day 0 [3, 8]: 365 mg/dL | Triglycerides Day 0 [3, 8]: 199 mg/dL | Glucose Day 3, 3 h [3, 8]: 283 mg/dL | Triglycerides Day 3, 3 h [3, 8]: 189 mg/dL | Glucose Day 6, 3 h [3, 8]: 309 mg/dL | T4 Day 7 [3, 8]: 2.2 µg/dL | Ki (RARα): 310 nM | Ki (RARγ): 550 nM | RXR Trans. efficacy β (RXRβ [4]; [9]): 33% | EC50 (RXRα [5]): 0.4 nM | RXR Trans. efficacy α (RXRα [5]): 34% | Ki (RXRγ [6]): 21 nM | RXR Trans. efficacy γ (RXRγ [7]): 25%

CC(/C=C/[C@@H]1C[C@]1(C)c1ccc2c(c1)C(C)(C)CCC2(C)C)=C\C(=O)O [Standard compound]
Glucose Day 0 [3, 10]: 378 mg/dL | Triglycerides Day 0 [3, 10]: 171 mg/dL | Glucose Day 3, 3 h [3, 10]: 308 mg/dL | Triglycerides Day 3, 3 h [3, 10]: 472 mg/dL | Glucose Day 6, 3 h [3, 10]: 333 mg/dL | T4 Day 7 [3, 10]: 1.2 µg/dL | Glucose Day 0 [3, 11]: 409 mg/dL | Triglycerides Day 0 [3, 11]: 193 mg/dL | Glucose Day 3, 3 h [3, 11]: 369 mg/dL | Triglycerides Day 3, 3 h [3, 11]: 50 mg/dL | Glucose Day 6, 3 h [3, 11]: 378 mg/dL | T4 Day 7 [3, 11]: 1.4 µg/dL | effect on serum thyroxine levels ([3]; diabetic mammals, summary in words): reducing serum thyroxine levels | RXR Trans. efficacy β (RXRβ [4]): 0.4 (100) 1% | RXR Trans. efficacy α (RXRα [5]): 100%

CCCOc1c(\C(=C/C=C/C(C)=C/C(=O)O)CC)cc(C(C)C)cc1C(C)C [Compound 8, 7-(3,5-Diisopropyl-2-propoxy-phenyl)-3-methyl-nona-2,4,6-trienoic acid]
Ki (RXRα [1]): 1 nM | Ki (RARβ): 80 nM | Ki (RXRβ [2]): 12 nM | Glucose Day 0 [3, 12]: 468 mg/dL | Triglycerides Day 0 [3, 12]: 173 mg/dL | Glucose Day 3, 3 h [3, 12]: 443 mg/dL | Triglycerides Day 3, 3 h [3, 12]: 278 mg/dL | Glucose Day 6, 3 h [3, 12]: 384 mg/dL | T4 Day 7 [3, 12]: 3.0 µg/dL | Ki (RARα): 170 nM | Ki (RARγ): 310 nM | RXR Trans. efficacy β (RXRβ [4]; [9]): 29% | EC50 (RXRα [5]): 1 nM | RXR Trans. efficacy α (RXRα [5]): 33% | RXR Trans. efficacy γ (RXRγ [7]): 21%
